Test results reported in patent publication US7544821B2, “α-Ketol unsaturated fatty acid derivative and plant growth regulating agent using same” (Shiseido Company, Ltd., priority 2004, dated 2009).
Read-outs that look alike come from different tables or passages of the source.

What was measured:
[1] = system: morning glory (variety: murasaki); assay: Activity in increasing flower budding of morning glory (spray, dark treatment, flower buds counted on the 14th day); format: in vivo
Experimental: Seeds of morning glory (variety: murasaki) (9 g) were subjected to concentrated sulfuric acid treatment for 20 minutes, and then allowed to stand under water flow overnight.
Subsequently, the seeds were placed on wet sea sand such that the emerging sites of the roots were directed upward for 24 hours, to thereby produce roots. The seeds having roots were planted in sea sand at a position 1 cm below the surface of the sand, and then cultured under continuous light irradiation (for about five days).
The entire plant bodies of the morning glory having leaves produced through this culture were transferred into a culture solution KNO3(250 mg), NH4NO3 (250 mg), KH2PO4 (250 mg), MgSO4.7H2O (250 mg), MnSO4.4H2O (1 mg), Fe-citrate n-hydrate (6 mg), H3BO3 (2 mg), CuSO4.5H2O (0.1 mg), ZeSO4.7H2O (0.2 mg), Na2MoO4.2H2O (0.2 mg), Ca(H2PO4)2.2H2O (250 mg) in distilled water (1,000 mL)].
Water or a 0.01, 0.1, 1 or 100 μM specific α-ketol fatty acid (1A) aqueous solution was sprayed to the cultured system in an amount of 0.1 mL/plant, then the plants were treated by darkness (for 13.5 hours).
Thereafter, the morning glory was grown under continuous light irradiation at 25° C. for 14 days, and on the 14th day the number of the flower buds was measured.
The results of eight specimens of morning glory were averaged.

[2] = Evaluation of stability: decomposition over time of the diluted aqueous solution, analyzed by HPLC; format: physicochemical; details: 16 mM ethanol solution diluted by water 30-fold, extended standing, HPLC (FIG. 3)
Experimental: The stability of the specific α-ketol fatty acid derivative (1A) was evaluated as follows. A 16 mM ethanol solution of the derivative (1A) was diluted by water 30-fold. This diluted solution was allowed to stand for an extended period at each of the temperatures of 4° C., 25° C. and 50° C. The extent of decomposition over time was analyzed by HPLC (column: CAPCELL PAK C-18 UG120, 4.6×250 mm, solvent: 50% acetonitrile+0.1% trifluoroacetic acid, flow rate: 1 ml/min, wavelength: 210 nm). For comparison, a solution prepared by similarly diluting the specific α-ketol fatty acid derivative (2A) was allowed to stand for an extended period at each of 25° C. and 50° C. The extent of decomposition was similarly investigated.

[3] = system: morning glory (variety: murasaki); details: from Japanese Patent Publication (A) No. 11-29410; cited from earlier work

Row | SMILES | optimum concentration relative to the optimum concentration of (2A) ([1]; 1 μM versus 100 μM) | number of flower buds formed, increase ([1]; 0.01-100 μM aqueous solution sprayed 0.1 mL/plant, darkness 13.5 hours, counted on 14th day, average of eight specimens, water 1.25 buds/plant (FIG. 2)) [%] | optimum concentration for flower bud formation ([1]; morning glory, sprayed aqueous solution, FIG. 2) [µM] | stability at 4° C. compared with 25° C. and 50° C. ([2]; 4° C.) | stability compared with (2A) ([2]; 25° C.) | stability compared with (2A) ([2]; 50° C.) | optimum concentration for flower bud formation [3] [µM]
1 | CCC(O)C(O)C/C=C\CC(=O)C(O)CCCCCCCC(=O)O (stereo not shown) [compound (1A), 9,15,16-trihydroxy-10-oxo-12(Z)-octadecenoic acid] | 1/100 | ≥ 200 | 1 | far superior in stability | superior in stability | superior in stability | –
2 | CC/C=C\C/C=C\CC(=O)C(O)CCCCCCCC(=O)O (stereo not shown) [compound (2A), 9-hydroxy-10-oxo-12(Z),15(Z)-octadecadienoic acid] | – | – | – | – | – | – | 100
